Tests used:
[1] = tested on: T-Rex 293 cell line SC3 cells having increased expression of androgen receptor protein due to exposure to doxycycline; assay: Cellular growth inhibition, T-Rex 293 SC3 cells with doxycycline (androgen receptor induced), CellTiter-Glo; type: cell-based; details: 72 h, T-Rex 293 SC3 cells with 10 ng/mL doxycycline (increased androgen receptor expression)
Method: (§1) The following types of cells were prepared for this experiment: (i) a T-Rex 293 cell line having increased expression of androgen receptor protein due to exposure to doxycycline and (ii) a T-Rex 293 cell line lacking increased expression of androgen receptor protein. Ability of the test compounds to inhibit proliferation of the foregoing cell types was evaluated according to the procedures set forth below.
(§2) The doxycycline-inducible androgen receptor protein expressing cell line was established using the following protocol: T-Rex 293 cells were purchased from Invitrogen (Cat #R71007) and transfected using Lipofectamine 2000 with the wild-type androgen receptor protein sequence cloned into the pcDNA4/TO vector. Transfected cells were selected using 400 μg/mL Zeocin (Invitrogen Cat #R25001). Following selection, single clones were raised and maintained in Dulbecco's Modified Eagle Medium (DMEM) supplemented with 10% w/w Tetracycline-free fetal bovine serum (FBS) and 250 μg/mL Zeocin. Clones were analyzed for expression of androgen receptor protein in the presence and absence of 10 ng/mL doxycycline (Sigma Cat #D9891), and a single doxycycline-inducible clone (hereinafter “SC3”) was selected for use in downstream assays.
(§3) The SC3 cells were seeded on poly-D-lysine coated, black clear-bottom 384-well plates at 2500/well, in 25 μL Phenol Red Free Dulbecco's Modified Eagle Medium (DMEM) supplemented with 10% w/w charcoal-dextran treated fetal bovine serum (FBS) and 1% w/w pen-strep, with or without 10 ng/mL doxycycline. Pen-Strep is a commercially available mixture of penicillin G and streptomycin, which is used in mammalian cell culture media to prevent bacterial contamination. Phenol Red Free Dulbecco's Modified Eagle Medium (DMEM) supplemented with 10% w/w charcoal-dextran treated fetal bovine serum (FBS) and 1% w/w pen-strep, with or without 10 ng/mL doxycycline is herein referred to as Treatment Medium. Following seeding of cells in the plates, the plates were spun at 300×g for 30 seconds, then equilibrated to room temperature for 30 minutes, and then deposited in a humidified tissue culture incubator maintained at 37° C. with 5% CO2.
(§4) At 24 hours after seeding of the cells, dilutions of test compound were prepared in DMSO and dissolved in Treatment Medium, to achieve a final DMSO concentration of 0.5% w/w, thereby providing the Test Compound Solution. A 25 μL aliquot of the Test Compound Solution was added to cells in the well plates. An equal volume of a solution containing DMSO and Treatment Medium was used as a negative control. Following treatment of cells with Test Compound Solution or said equal volume of a solution containing DMSO and Treatment Medium, the plates were spun at 300×g for 30 seconds, and then left in an incubator for 72 hours. At the end of the treatment duration, cell viability was quantified with CellTiter-Glo 2.0 reagent (Promega Cat #G9243). For this purpose, plates were equilibrated to room temperature for 30 minutes, and then 25 μL of CellTiter-Glo 2.0 reagent was added to cells in the plate wells. Plates were then agitated on a shaker for two minutes at 500 rpm and subsequently incubated at room temperature for 10 minutes. Following incubation, the plates were spun at 3000×g for 30 seconds, then sealed with an optical adhesive cover, and luminescence readings were measured with an EnVision Plate Reader. Data was normalized using zero luminescence for baseline. A four-parameter non-linear regression curve fit was applied to dose-response data in GraphPad Prism data analysis software to determine the half-maximal growth inhibitory concentration (GI50) for each test compound.

[2] = tested on: T-Rex 293 cell line SC3 cells lacking increased expression of androgen receptor protein; assay: Cellular growth inhibition, T-Rex 293 SC3 cells without doxycycline, CellTiter-Glo; type: cell-based; details: 72 h, T-Rex 293 SC3 cells not exposed to doxycycline, CellTiter-Glo 2.0
Method: as §1, §2, §3, §4

VCaP cells = assay: Cellular growth inhibition assay for VCaP cells, CellTiter-Glo; type: cell-based, human; details: Homo sapiens, VCaP, 72 h, 72 hours treatment, CellTiter-Glo 2.0
Method: VCaP cells were purchased from American Type Cell Culture (ATCC Cat #CRL2876) and then seeded on poly-D-lysine coated, black clear-bottom 384-well plates at 5000/well in 25 μL Dulbecco's Modified Eagle Medium (DMEM) supplemented with 10% w/w Fetal bovine serum (FBS) and 1% w/w Pen-Strep. Pen-Strep is a commercially available mixture of penicillin G and streptomycin, which is used in mammalian cell culture media to prevent bacterial contamination. Dulbecco's Modified Eagle Medium (DMEM) supplemented with 10% w/w fetal bovine serum (FBS) and 1% w/w Pen-Strep is herein referred to as Treatment Medium. Following seeding of cells in the plates, the plates were spun at 300×g for 30 seconds, then equilibrated to room temperature for 30 minutes, and then deposited in a humidified tissue culture incubator maintained at 37° C. with 5% CO2.
At 24 hours after seeding of the cells, dilutions of test compound were prepared in DMSO and dissolved in Treatment Medium, to achieve a final DMSO concentration of 0.5% w/w, thereby providing the Test Compound Solution. A 25 μL aliquot of the Test Compound Solution was added to cells in the well plates. An equal volume of a solution containing DMSO and Treatment Medium was used as a negative control. Following treatment of cells with Test Compound Solution or said equal volume of a solution containing DMSO and Treatment Medium, the plates were spun at 300×g for 30 seconds, and then left in an incubator for 72 hours.
At the end of the treatment duration, cell viability was quantified with CellTiter-Glo 2.0 reagent (Promega Cat #G9243). For this purpose, plates were equilibrated to room temperature for 30 minutes, and then 25 μL of CellTiter-Glo 2.0 reagent was added to cells in the plate wells. Plates were then agitated on a shaker for two minutes at 500 rpm and subsequently incubated at room temperature for 10 minutes. Following incubation, the plates were spun at 3000×g for 30 seconds, then sealed with an optical adhesive cover, and luminescence readings were measured with an EnVision Plate Reader.
Data was normalized using zero luminescence for baseline. A four-parameter non-linear regression curve fit was applied to dose-response data in GraphPad Prism data analysis software to determine the half-maximal growth inhibitory concentration (GI50) for each test compound.

| SMILES | GI50 [1] [µM] | GI50 [2] [µM] | GI50 (VCaP cells) [µM] |
| --- | --- | --- | --- |
| Cc1sc2c(c1C)C(c1ccc(Cl)cc1)=N[C@@H](CC(=O)NCCOCCOCCN(C)c1ncc(C(=O)N[C@H]3C(C)(C)[C@H](Oc4ccc(C#N)c(Cl)c4)C3(C)C)cn1)c1nnc(C)n1-2 [Compound I-2, N-[3-(3-chloro-4-cyano-phenoxy)-2,2,4,4-tetramethyl-cyclobutyl]-2-[2-[2-[2-[[2-[(9S)-7-(4-chlorophenyl)-4,5,13-trimethyl-3-thia-1,8,11,12-tetrazatricyclo[8.3.0.02,6]trideca-2(6),4,7,10,12-pentaen-9-yl]acetyl]amino]ethoxy]ethoxy]ethyl-methylamino]pyrimidine-5-carboxamide] | < 0.5 | 1.5 to 3 | < 0.5 |
| Cc1sc2c(c1C)C(c1ccc(Cl)cc1)=N[C@@H](CC(=O)NCCCCCCOC1CCN(c3ncc(C(=O)N[C@H]4C(C)(C)[C@H](Oc5ccc(C#N)c(Cl)c5)C4(C)C)cn3)CC1)c1nnc(C)n1-2 [Compound I-23] | < 0.5 | < 0.5 | < 0.5 |
| Cc1sc2c(c1C)C(c1ccc(Cl)cc1)=N[C@@H](CC(=O)NCCCCCCCCOC1CCN(c3ncc(C(=O)N[C@H]4C(C)(C)[C@H](Oc5ccc(C#N)c(Cl)c5)C4(C)C)cn3)CC1)c1nnc(C)n1-2 [Compound I-25] | < 0.5 | > 3 | > 3 |
| Cc1sc2c(c1C)C(c1ccc(Cl)cc1)=N[C@@H](CC(=O)NCCCOCCOC1CCN(c3ncc(C(=O)N[C@H]4C(C)(C)[C@H](Oc5ccc(C#N)c(Cl)c5)C4(C)C)cn3)CC1)c1nnc(C)n1-2 [Compound I-26] | < 0.5 | 0.5 to 1.5 | < 0.5 |
| Cc1sc2c(c1C)C(c1ccc(Cl)cc1)=N[C@@H](CC(=O)NCCOCCCOC1CCN(c3ncc(C(=O)N[C@H]4C(C)(C)[C@H](Oc5ccc(C#N)c(Cl)c5)C4(C)C)cn3)CC1)c1nnc(C)n1-2 [Compound I-27] | < 0.5 | 0.5 to 1.5 | < 0.5 |
| Cc1sc2c(c1C)C(c1ccc(Cl)cc1)=N[C@@H](CC(=O)NCCCOCCCOC1CCN(c3ncc(C(=O)N[C@H]4C(C)(C)[C@H](Oc5ccc(C#N)c(Cl)c5)C4(C)C)cn3)CC1)c1nnc(C)n1-2 [Compound I-29] | < 0.5 | 0.5 to 1.5 | < 0.5 |
| Cc1sc2c(c1C)C(c1ccc(Cl)cc1)=NC(CC(=O)NCCOCCCCOC1CCN(c3ncc(C(=O)N[C@H]4C(C)(C)[C@H](Oc5ccc(C#N)c(Cl)c5)C4(C)C)cn3)CC1)c1nnc(C)n1-2 (stereo partly drawn) [Compound I-30] | < 0.5 | < 0.5 | < 0.5 |
| Cc1sc2c(c1C)C(c1ccc(Cl)cc1)=N[C@@H](CC(=O)NCCCOCCCCOC1CCN(c3ncc(C(=O)N[C@H]4C(C)(C)[C@H](Oc5ccc(C#N)c(Cl)c5)C4(C)C)cn3)CC1)c1nnc(C)n1-2 [Compound I-33] | < 0.5 | < 0.5 | < 0.5 |
| Cc1sc2c(c1C)C(c1ccc(Cl)cc1)=N[C@@H](CC(=O)NCCOCCCCCOC1CCN(c3ncc(C(=O)N[C@H]4C(C)(C)[C@H](Oc5ccc(C#N)c(Cl)c5)C4(C)C)cn3)CC1)c1nnc(C)n1-2 [Compound I-34] | < 0.5 | < 0.5 | < 0.5 |
| Cc1sc2c(c1C)C(c1ccc(Cl)cc1)=N[C@@H](CC(=O)NCCCCN1CCN(CC3CCN(c4ncc(C(=O)N[C@H]5C(C)(C)[C@H](Oc6ccc(C#N)c(Cl)c6)C5(C)C)cn4)CC3)CC1)c1nnc(C)n1-2 [Compound I-37, N-((1r,3r)-3-(3-chloro-4-cyanophenoxy)-2,2,4,4-tetramethylcyclobutyl)-2-(4-((4-(4-(2-((S)-4-(4-chlorophenyl)-2,3,9-trimethyl-6H-thieno[3,2-f][1,2,4]triazolo[4,3-a][1,4]diazepin-6-yl)acetamido)butyl)piperazin-1-yl)methyl)piperidin-1-yl)pyrimidine-5-carboxamide] | < 0.5 | 0.5 to 1.5 | < 0.5 |
| CCNC(=O)C[C@@H]1N=C(c2ccc(OCCCOC3CCN(c4ncc(C(=O)N[C@H]5C(C)(C)[C@H](Oc6ccc(C#N)c(Cl)c6)C5(C)C)cn4)CC3)cc2)c2c(sc(C)c2C)-n2c(C)nnc21 [Compound I-62] | < 0.5 | < 0.5 | < 0.5 |
| CCNC(=O)C[C@@H]1N=C(c2ccc(OCCCCCCOC3CCN(c4ncc(C(=O)N[C@H]5C(C)(C)[C@H](Oc6ccc(C#N)c(Cl)c6)C5(C)C)cn4)CC3)cc2)c2c(sc(C)c2C)-n2c(C)nnc21 [Compound I-63] | < 0.5 | 0.5 to 1.5 | 1.5 to 3 |
| CCNC(=O)C[C@@H]1N=C(c2ccc(OCCCCOC3CCN(c4ncc(C(=O)NC5C(C)(C)C(Oc6ccc(C#N)c(Cl)c6)C5(C)C)cn4)CC3)cc2)c2c(sc(C)c2C)-n2c(C)nnc21 (stereo partly drawn) [Compound I-64] | < 0.5 | < 0.5 | < 0.5 |
| CCNC(=O)C[C@@H]1N=C(c2ccc(OCCOCCOC3CCN(c4ncc(C(=O)N[C@H]5C(C)(C)[C@H](Oc6ccc(C#N)c(Cl)c6)C5(C)C)cn4)CC3)c(F)c2F)c2c(sc(C)c2C)-n2c(C)nnc21 [Compound I-74] | < 0.5 | 0.5 to 1.5 | < 0.5 |
| CCNC(=O)C[C@@H]1N=C(c2ccc(OCCOCCOC3CCN(c4ncc(C(=O)N[C@H]5C(C)(C)[C@H](Oc6ccc(C#N)c(Cl)c6)C5(C)C)cn4)CC3)cc2F)c2c(sc(C)c2C)-n2c(C)nnc21 [Compound I-77] | < 0.5 | 0.5 to 1.5 | 0.5 to 1.5 |
| CCNC(=O)C[C@@H]1N=C(c2ccc(OCCOCCOC3CCN(c4ncc(C(=O)N[C@H]5C(C)(C)[C@H](Oc6ccc(C#N)c(Cl)c6)C5(C)C)cn4)CC3)c(F)c2)c2c(sc(C)c2C)-n2c(C)nnc21 [Compound I-78] | < 0.5 | 1.5 to 3 | 1.5 to 3 |
| CCNC(=O)C[C@@H]1N=C(c2ccc(CCCCCOC3CCN(c4ncc(C(=O)N[C@H]5C(C)(C)[C@H](Oc6ccc(C#N)c(Cl)c6)C5(C)C)cn4)CC3)cc2)c2c(sc(C)c2C)-n2c(C)nnc21 [Compound I-89] | < 0.5 | 0.5 to 1.5 | 1.5 to 3 |
| CCNC(=O)C[C@@H]1N=C(c2ccc(CCCCCCOC3CCN(c4ncc(C(=O)N[C@H]5C(C)(C)[C@H](Oc6ccc(C#N)c(Cl)c6)C5(C)C)cn4)CC3)cc2)c2c(sc(C)c2C)-n2c(C)nnc21 [Compound I-90] | < 0.5 | > 3 | > 3 |

From patent publication US20260062422A1 (Halda Therapeutics OpCo, Inc., priority 2022, published 2026)
